This is an account of results in paper PMC11427369 (Frontiers in Pharmacology, 2024).

In one experiment the target is C2IIa (Clostridium botulinum, UniProt O86171). The experiment is classed as biochemical.
The next experiment concerns the target T1, PA63 (Bacillus anthracis, UniProt P13423).
T1 construct: gene pagA
In kind it is biochemical.

T1 sequence (P13423 197-764 limits assumed): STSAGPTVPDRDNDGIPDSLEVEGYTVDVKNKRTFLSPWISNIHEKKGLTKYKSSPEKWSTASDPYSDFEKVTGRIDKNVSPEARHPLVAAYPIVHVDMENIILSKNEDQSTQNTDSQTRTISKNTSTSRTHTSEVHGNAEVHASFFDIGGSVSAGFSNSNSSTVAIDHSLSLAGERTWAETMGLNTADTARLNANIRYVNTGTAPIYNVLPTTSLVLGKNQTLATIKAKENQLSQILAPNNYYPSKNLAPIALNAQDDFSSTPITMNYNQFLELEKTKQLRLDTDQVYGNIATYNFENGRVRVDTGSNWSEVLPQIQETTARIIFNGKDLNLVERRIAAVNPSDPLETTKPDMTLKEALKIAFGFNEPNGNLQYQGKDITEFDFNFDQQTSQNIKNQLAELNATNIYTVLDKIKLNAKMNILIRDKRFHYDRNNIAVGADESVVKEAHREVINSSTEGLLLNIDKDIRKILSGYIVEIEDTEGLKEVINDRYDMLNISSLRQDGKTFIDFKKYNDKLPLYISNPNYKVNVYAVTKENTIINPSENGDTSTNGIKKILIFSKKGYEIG
Chain of C2IIa (O86171 182-721 limits assumed): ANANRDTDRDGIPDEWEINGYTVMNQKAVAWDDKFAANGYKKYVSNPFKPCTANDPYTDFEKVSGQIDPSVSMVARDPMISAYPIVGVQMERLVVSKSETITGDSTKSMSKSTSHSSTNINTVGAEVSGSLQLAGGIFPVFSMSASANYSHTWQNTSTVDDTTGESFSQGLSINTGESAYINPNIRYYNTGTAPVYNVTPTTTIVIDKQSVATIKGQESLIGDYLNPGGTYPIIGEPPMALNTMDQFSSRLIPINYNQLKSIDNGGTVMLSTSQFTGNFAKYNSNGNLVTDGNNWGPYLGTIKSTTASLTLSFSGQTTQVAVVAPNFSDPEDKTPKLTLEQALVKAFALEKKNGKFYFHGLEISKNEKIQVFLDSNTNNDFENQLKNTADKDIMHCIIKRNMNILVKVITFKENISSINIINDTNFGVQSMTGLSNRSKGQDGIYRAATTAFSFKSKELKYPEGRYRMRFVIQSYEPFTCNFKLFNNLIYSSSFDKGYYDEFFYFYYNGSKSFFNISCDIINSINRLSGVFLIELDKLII

As for `CCN(CC)C(=S)SSC(=S)N(CC)CC` [disulfiram], the “pore conductance block, planar lipid bilayer” value on C2IIa is “addition of DSF led to an immediate block of any current flowing”; on PA63, “addition of DSF immediately blocked any current flow, leading to zero level of conductance”.
